The source of these data is publication PMC4394430, “Licochalcone A, a Polyphenol Present in Licorice, Suppresses UV-Induced COX-2 Expression by Targeting PI3K, MEK1, and B-Raf” (International Journal of Molecular Sciences, 2015).

The structures appear in SMILES notation.

The target in assay [1] is T1, B-Raf (Homo sapiens, UniProt P15056).
T1 construct: gene BRAF
The following applies: 10 and 100 uM ATP; 4 C; competitive with LicoA.

Assay [2] concerns the target T1, B-Raf. Put plainly: LicoA-Sepharose 4B pull-down, immunoblot. The class given is binding. The following applies: pH 7.5; 4 C; immobilised LicoA; blocked by ATP (ATP-competitive).
The target in assay [3] is T1, B-Raf. The experiment in a line: […] kinase assay, inactive MEK1 and MBP peptide. The class given is biochemical. To be noted: 5 and 10 uM LicoA; pH 7.5; 30 C; coupled readout; ATP-competitive.
A further assay concerns the target T2, MEK1 (Homo sapiens, UniProt Q02750).
T2 construct: gene MAP2K1
The experiment in a line: LicoA-Sepharose 4B pull-down, immunoblot. The following applies: pH 7.5; 4 C; immobilised LicoA; not blocked by ATP (non-competitive). The class given is binding. Background: Immunoblotting shows a protein as a band on a membrane.

T1 sequence (P15056 2-766): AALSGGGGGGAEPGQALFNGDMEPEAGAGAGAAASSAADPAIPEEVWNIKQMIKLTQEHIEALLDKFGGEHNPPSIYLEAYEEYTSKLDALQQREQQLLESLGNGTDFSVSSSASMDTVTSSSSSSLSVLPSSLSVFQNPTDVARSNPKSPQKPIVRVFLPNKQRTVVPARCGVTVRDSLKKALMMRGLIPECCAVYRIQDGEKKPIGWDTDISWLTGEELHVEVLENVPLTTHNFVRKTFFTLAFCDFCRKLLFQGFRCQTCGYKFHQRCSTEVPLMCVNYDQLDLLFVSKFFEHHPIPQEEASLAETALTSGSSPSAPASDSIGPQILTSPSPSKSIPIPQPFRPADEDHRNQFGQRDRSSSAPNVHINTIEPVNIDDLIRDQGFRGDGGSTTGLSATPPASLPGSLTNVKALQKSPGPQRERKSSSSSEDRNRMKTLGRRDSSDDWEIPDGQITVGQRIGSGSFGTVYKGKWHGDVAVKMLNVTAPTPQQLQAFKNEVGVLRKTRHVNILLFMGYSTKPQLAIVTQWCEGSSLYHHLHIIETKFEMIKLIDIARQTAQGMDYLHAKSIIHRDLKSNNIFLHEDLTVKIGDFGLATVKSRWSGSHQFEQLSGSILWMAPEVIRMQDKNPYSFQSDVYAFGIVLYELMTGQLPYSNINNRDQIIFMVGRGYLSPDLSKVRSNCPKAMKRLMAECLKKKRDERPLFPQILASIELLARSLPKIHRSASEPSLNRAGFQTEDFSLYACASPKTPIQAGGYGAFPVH
T2 sequence (Q02750 whole entry): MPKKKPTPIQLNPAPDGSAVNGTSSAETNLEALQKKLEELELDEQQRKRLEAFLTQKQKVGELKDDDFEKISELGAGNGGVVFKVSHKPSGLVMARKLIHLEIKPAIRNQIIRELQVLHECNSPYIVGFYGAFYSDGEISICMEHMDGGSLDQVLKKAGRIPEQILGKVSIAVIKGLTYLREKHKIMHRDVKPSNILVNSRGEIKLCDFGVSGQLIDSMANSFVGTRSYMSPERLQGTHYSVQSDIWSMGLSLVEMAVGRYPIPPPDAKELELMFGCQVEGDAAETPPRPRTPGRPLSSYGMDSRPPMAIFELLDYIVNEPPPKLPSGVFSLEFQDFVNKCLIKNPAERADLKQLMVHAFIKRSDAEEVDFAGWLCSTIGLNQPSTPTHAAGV

For `Nc1ncnc2c1ncn2[C@@H]1O[C@H](COP(=O)(O)OP(=O)(O)OP(=O)(O)O)[C@@H](O)[C@H]1O` [ATP], the “ATP competition with LicoA-Sepharose 4B pull-down” value on B-Raf [1] was “ATP treatment blocked the binding ability of LicoA with PI3K (Figure 4B) and B-Raf (Figure 4F)”.
Regarding `C=CC(C)(C)c1cc(/C=C/C(=O)c2ccc(O)cc2)c(OC)cc1O` [LicoA, Licochalcone A], the “LicoA-Sepharose 4B pull-down, immunoblot” value is “LicoA binds with PI3K and B-Raf in competition with ATP” on B-Raf [2]; “LicoA binds with MEK1 in an ATP non-competitive manner” on MEK1. For the same molecule, the “% inhibition” value at B-Raf [3] is recorded as “strongly blocked B-Raf (Figure 3C) activity in a dose-dependent manner”.
